Data from PubChem BioAssay AID248 (DTP/NCI, 2004).
Values joined by “and” are separate entries in the source; they are usually repeats but may differ in a detail not shown here. Identical values can stand only once. Toxic doses and inconclusive results are not listed. Rule as the data show it: active = T/C of 150% or more; inactive = T/C below 125%.

Test system: L1210 leukemia ip in BDF1 mice, survival T/C
Assay: NCI In Vivo Anticancer Drug Screen. Data for tumor model L1210 Leukemia (intraperitoneal) in B6D2F1 (BDF1) mice
Details: endpoint: mean survival time, higher = longer survival
Summary of the method: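 Mice bearing the transplanted tumor received compound or vehicle. Survival of the treated group was divided by that of the vehicle-treated control group to give the ratio.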

[1] = dose: 25.0 mg/kg/injection, schedule: Q01DX009 (ip), vehicle: Klucel (hydroxypropylcellulose) (HPC)
[2] = dose: 50.0 mg/kg/injection, schedule: Q01DX009 (ip), vehicle: Klucel (hydroxypropylcellulose) (HPC)
[3] = dose: 200.0 mg/kg/injection, schedule: Q01DX009 (ip), vehicle: Klucel (hydroxypropylcellulose) (HPC)
[4] = dose: 100.0 mg/kg/injection, schedule: Q04DX003 (ip), vehicle: Klucel (hydroxypropylcellulose) (HPC)
[5] = dose: 200.0 mg/kg/injection, schedule: Q04DX003 (ip), vehicle: Klucel (hydroxypropylcellulose) (HPC)
[6] = dose: 400.0 mg/kg/injection, schedule: Q04DX003 (ip), vehicle: Klucel (hydroxypropylcellulose) (HPC)
[7] = dose: 100.0 mg/kg/injection, schedule: Q01DX001 (ip), vehicle: saline
[8] = dose: 200.0 mg/kg/injection, schedule: Q01DX001 (ip), vehicle: saline
[9] = dose: 100.0 mg/kg/injection, schedule: Q01DX009 (ip), vehicle: Klucel (hydroxypropylcellulose) (HPC)
[10] = dose: 400.0 mg/kg/injection, schedule: Q01DX001 (ip), vehicle: saline

Measured: T/C

CCOC(=O)C(C(C)=O)C(c1ccc(N(C)C)cc1)C(C(C)=O)C(=O)OCC (stereo not drawn)
inactive: dose: 25.6 mg/kg/injection, schedule: Q04DX002 (ip), vehicle: saline with Tween-80 97 % of control | dose: 64.0 mg/kg/injection, schedule: Q04DX002 (ip), vehicle: saline with Tween-80 93 % of control | dose: 100.0 mg/kg/injection, schedule: Q04DX003 (ip), vehicle: saline with Tween-80 89 % of control | dose: 160.0 mg/kg/injection, schedule: Q04DX002 (ip), vehicle: saline with Tween-80 93 % of control | dose: 200.0 mg/kg/injection, schedule: Q04DX003 (ip), vehicle: saline with Tween-80 92 % of control | dose: 400.0 mg/kg/injection, schedule: Q04DX002 (ip), vehicle: saline with Tween-80 89 % of control | dose: 400.0 mg/kg/injection, schedule: Q04DX003 (ip), vehicle: saline with Tween-80 95 % of control

Nc1ncnc2c1ncn2C1C=COC(CO)C1O (stereo not drawn)
inactive: dose: 100.0 mg/kg/injection, schedule: Q01DX005 (ip), vehicle: saline 100 % of control | dose: 200.0 mg/kg/injection, schedule: Q01DX005 (ip), vehicle: saline 97 % of control

Cc1c(NC(=O)Nc2cccc(C(F)(F)F)c2)c(=O)n(-c2ccccc2)n1C
inactive: [1] 88 % of control | [2] 86 % of control | [3] 96 % of control

CC1=C(C)CC(c2ccccc2)C(C(=O)O)C1 (stereo not drawn)
inactive: dose: 176.0 mg/kg/injection, schedule: Q01DX001 (ip), vehicle: other 100 % of control | dose: 266.0 mg/kg/injection, schedule: Q01DX001 (ip), vehicle: other 100 % of control | dose: 400.0 mg/kg/injection, schedule: Q01DX001 (ip), vehicle: other 101 % of control

O=C(O)COc1c(Cl)c(Cl)c(Cl)c(Cl)c1Cl
inactive: dose: 100.0 mg/kg/injection, schedule: Q01DX009 (ip), vehicle: saline with Tween-80 93 % of control

N#CCCn1ccc2ccccc21
inactive: dose: 100.0 mg/kg/injection, schedule: Q04DX003 (ip), vehicle: other 96 % of control | dose: 200.0 mg/kg/injection, schedule: Q04DX003 (ip), vehicle: other 104 % of control | dose: 400.0 mg/kg/injection, schedule: Q04DX003 (ip), vehicle: other 106 % of control

CCCCCCCCCCCCOCC[N+](C/C=C/c1ccccc1)(CCO)CCO
inactive: dose: 6.25 mg/kg/injection, schedule: Q01DX009 (ip), vehicle: saline with Tween-80 93 % of control | dose: 12.5 mg/kg/injection, schedule: Q01DX009 (ip), vehicle: saline with Tween-80 95 % of control

CCCC(=O)NN=C(C)C
inactive: dose: 12.5 mg/kg/injection, schedule: Q01DX009 (ip), vehicle: saline 109 % of control | dose: 25.0 mg/kg/injection, schedule: Q01DX009 (ip), vehicle: saline 109 % of control | dose: 50.0 mg/kg/injection, schedule: Q01DX009 (ip), vehicle: saline 95 % of control

O=P(C1CCCC1)(C1CCCC1)C1CCCC1
inactive: dose: 100.0 mg/kg/injection, schedule: Q01DX001 (ip), vehicle: saline with Tween-80 100 % of control | dose: 200.0 mg/kg/injection, schedule: Q01DX001 (ip), vehicle: saline with Tween-80 94 % of control | dose: 400.0 mg/kg/injection, schedule: Q01DX001 (ip), vehicle: saline with Tween-80 92 % of control

O=C(O)CC1OCC=C2CN3CCC45C6=CC(=O)C(=O)C([N+](=O)[O-])=C6NC4C1C2CC35 (stereo not drawn)
inactive: dose: 25.0 mg/kg/injection, schedule: Q01DX001 (ip), vehicle: carboxymethylcellulose (CMC) 98 % of control

CC1C=C2C(=O)C=C3OCOC34Oc3cc5c(cc3C(C1C)C24)OCO5 (stereo not drawn)
inactive: [4] 94 % of control | [5] 97 % of control | [6] 97 % of control

NC(=O)C(N)Cc1ccc(O)c(O)c1 (stereo not drawn)
inactive: dose: 100.0 mg/kg/injection, schedule: Q01DX009 (ip), vehicle: saline 107 % of control | dose: 100.0 mg/kg/injection, schedule: Q04DX003 (ip), vehicle: saline 102 % of control | dose: 200.0 mg/kg/injection, schedule: Q01DX009 (ip), vehicle: saline 102 % of control | dose: 200.0 mg/kg/injection, schedule: Q04DX003 (ip), vehicle: saline 98 % of control | dose: 400.0 mg/kg/injection, schedule: Q01DX009 (ip), vehicle: saline 109 % of control | dose: 400.0 mg/kg/injection, schedule: Q04DX003 (ip), vehicle: saline 115 % of control | dose: 800.0 mg/kg/injection, schedule: Q01DX009 (ip), vehicle: saline 103 % of control and 114 % of control | dose: 1600.0 mg/kg/injection, schedule: Q01DX009 (ip), vehicle: saline 104 % of control

CC1CCCN(N=Nc2ccc(Br)cc2-c2nc(N)c3cc(Br)ccc3n2)C1 (stereo not drawn)
inactive: dose: 25.0 mg/kg/injection, schedule: Q01DX001 (ip), vehicle: Klucel (hydroxypropylcellulose) (HPC) 97 % of control | dose: 50.0 mg/kg/injection, schedule: Q01DX001 (ip), vehicle: Klucel (hydroxypropylcellulose) (HPC) 105 % of control | dose: 100.0 mg/kg/injection, schedule: Q01DX001 (ip), vehicle: Klucel (hydroxypropylcellulose) (HPC) 102 % of control

CC(C)Cc1ccc(C(C)C(=O)O)cc1 (stereo not drawn)
inactive: [7] 100 % of control | [8] 92 % of control

CC(=O)Nc1cc2c(cc1Cl)-c1ccccc1C2Br (stereo not drawn)
inactive: [4] 96 % of control | [5] 94 % of control | [6] 96 % of control

CC1(C)N(C(=S)Nc2ccccc2)C1(C)C
inactive: [2] 106 % of control | dose: 50.0 mg/kg/injection, schedule: Q04DX003 (ip), vehicle: Klucel (hydroxypropylcellulose) (HPC) 92 % of control | [9] 95 % of control | [4] 103 % of control | [3] 92 % of control | [5] 102 % of control

Cc1cccc(C)c1NC(=O)Nc1ccc(CCO)cc1
inactive: [9] 97 % of control | [3] 98 % of control

O=C(Nc1ccc(S(=O)(=O)Nc2ccc(N=Nc3ccccc3)cc2)cc1)C(SC1=NC=NC2=NC=NC21)(SC1=NC=NC2=NC=NC21)SC1=NC=NC2=NC=NC21 (stereo not drawn)
inactive: dose: 75.0 mg/kg/injection, schedule: Q04DX003 (ip), vehicle: saline 104 % of control | dose: 150.0 mg/kg/injection, schedule: Q04DX003 (ip), vehicle: saline 109 % of control | dose: 300.0 mg/kg/injection, schedule: Q04DX003 (ip), vehicle: saline 100 % of control

Cc1c(Br)c(=O)[nH]c2c(C)cccc12
inactive: [7] 98 % of control | [8] 98 % of control | [10] 96 % of control

COc1ccc(C(=O)NC(=O)C(C(=O)c2ccc(OC)cc2)c2ccccc2)cc1 (stereo not drawn)
inactive: dose: 100.0 mg/kg/injection, schedule: Q01DX001 (ip), vehicle: other 86 % of control

Clc1ccc(C(c2ccc(Cl)cc2)C(Cl)Cl)cc1
inactive: [4] 98 % of control | [5] 98 % of control | [6] 98 % of control

O=C1C(c2c[nH]c3ccc(Br)cc23)=Nc2ccc(Br)cc21
inactive: [7] 102 % of control | [8] 100 % of control | [10] 105 % of control

CCOc1ccn(C2OC(CO)C(OC3OC(COC(C)=O)C(OC(C)=O)C(OC(C)=O)C3OC(C)=O)C(OC(C)=O)C2OC(C)=O)c(=O)n1 (stereo not drawn)
inactive: dose: 22.5 mg/kg/injection, schedule: Q01DX001 (ip), vehicle: carboxymethylcellulose (CMC) 100 % of control | dose: 45.0 mg/kg/injection, schedule: Q01DX001 (ip), vehicle: carboxymethylcellulose (CMC) 103 % of control | dose: 90.0 mg/kg/injection, schedule: Q01DX001 (ip), vehicle: carboxymethylcellulose (CMC) 97 % of control | dose: 180.0 mg/kg/injection, schedule: Q01DX001 (ip), vehicle: carboxymethylcellulose (CMC) 100 % of control

CC(C)c1ccc(N2C(=O)C=CC2=O)cc1
inactive: dose: 12.5 mg/kg/injection, schedule: Q01DX009 (ip), vehicle: Klucel (hydroxypropylcellulose) (HPC) 100 % of control | [1] 91 % of control

CCCCN(C)/N=N/c1nc[nH]c1C#N
inactive: dose: 75.0 mg/kg/injection, schedule: Q01DX001 (ip), vehicle: other 105 % of control | dose: 75.0 mg/kg/injection, schedule: Q01DX009 (ip), vehicle: saline with Tween-80 103 % of control | dose: 75.0 mg/kg/injection, schedule: Q04DX003 (ip), vehicle: saline with Tween-80 105 % of control | dose: 150.0 mg/kg/injection, schedule: Q01DX001 (ip), vehicle: other 102 % of control | dose: 150.0 mg/kg/injection, schedule: Q01DX009 (ip), vehicle: saline with Tween-80 105 % of control | dose: 150.0 mg/kg/injection, schedule: Q04DX003 (ip), vehicle: saline with Tween-80 96 % of control | dose: 300.0 mg/kg/injection, schedule: Q01DX001 (ip), vehicle: other 101 % of control | dose: 300.0 mg/kg/injection, schedule: Q01DX009 (ip), vehicle: saline with Tween-80 109 % of control | dose: 300.0 mg/kg/injection, schedule: Q04DX003 (ip), vehicle: saline with Tween-80 96 % of control
